Laboratory results taken from patent publication US8716309B2, “Pharmaceutical composition comprising pyridone derivatives” (priority 2011, dated 2014).

These compounds were tested against human α7 nAChR (Homo sapiens, UniProt P36544) (assay: cell-based). Conditions: EC50 of human α7nAChR(nM), HEK293T/17 cells transfected with human α7 nAChR; PNU-120596 added; relative to epibatidine 1 μM positive control.
Chain of human α7 nAChR (P36544 23-502): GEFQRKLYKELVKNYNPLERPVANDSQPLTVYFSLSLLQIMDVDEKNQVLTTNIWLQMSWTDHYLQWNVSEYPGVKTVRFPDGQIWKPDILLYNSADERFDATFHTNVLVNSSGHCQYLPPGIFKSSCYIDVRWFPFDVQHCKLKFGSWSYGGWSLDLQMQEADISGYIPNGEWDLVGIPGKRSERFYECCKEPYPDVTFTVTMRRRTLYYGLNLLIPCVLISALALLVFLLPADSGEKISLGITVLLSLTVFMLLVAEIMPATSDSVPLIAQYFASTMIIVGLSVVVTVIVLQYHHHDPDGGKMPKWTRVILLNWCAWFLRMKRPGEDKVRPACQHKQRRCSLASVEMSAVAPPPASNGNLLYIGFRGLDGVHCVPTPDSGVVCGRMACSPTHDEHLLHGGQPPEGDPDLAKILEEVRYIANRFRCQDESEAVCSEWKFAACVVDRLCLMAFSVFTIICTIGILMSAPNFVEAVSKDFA

Compound | EC50 [nM]
Cc1ccc(-c2ccc(-n3cc(C(=O)NC4CN5CCC4CC5)ccc3=O)cc2)cc1 (centres unmarked) [Example 69, N-(1-azabicyclo[2.2.2]octan-3-yl)-1-[4-(4-methylphenyl)phenyl]-6-oxo-3-pyridinecarboxamide] | 100 to 500
Cc1ccc(-c2ccc(-n3cc(C(=O)NC4CN5CCC4CC5)ccc3=O)cc2)s1 (centres unmarked) [Example 108, N-(1-azabicyclo[2.2.2]octan-3-yl)-1-[4-(5-methyl-2-thiophenyl)phenyl]-6-oxo-3-pyridinecarboxamide] | 100 to 500
COc1ccc(Cl)cc1-n1cc(C(=O)NC2CN3CCC2CC3)ccc1=O (centres unmarked) [Example 56, N-(1-azabicyclo[2.2.2]octan-3-yl)-1-(5-chloro-2-methoxyphenyl)-6-oxo-3-pyridinecarboxamide] | 500 to 1000
O=C(NC1CN2CCC1CC2)c1ccc(=O)n(-c2ccc(Oc3ccccc3)cc2)c1 (centres unmarked) [Example 73, N-(1-azabicyclo[2.2.2]octan-3-yl)-6-oxo-1-(4-phenoxyphenyl)-3-pyridinecarboxamide] | 500 to 1000
CSc1cc(C(C)C)ccc1-n1cc(C(=O)NC2CN3CCC2CC3)ccc1=O (centres unmarked) [Example 96, N-(1-azabicyclo[2.2.2]octan-3-yl)-1-[2-(methylthio)-4-propan-2-ylphenyl]-6-oxo-3-pyridinecarboxamide] | < 100
O=C(NC1CN2CCC1CC2)c1ccc(=O)n(-c2ccc(F)cc2)c1 (centres unmarked) [Example 7, N-(1-azabicyclo[2.2.2]octan-3-yl)-1-(4-fluorophenyl)-6-oxo-3-pyridinecarboxamide] | 500 to 1000
CSc1cc(C)ccc1-n1cc(C(=O)N[C@H]2CN3CCC2CC3)ccc1=O [Example 90, N-[(3R)-1-azabicyclo[2.2.2]octan-3-yl]-1-[4-methyl-2-(methylthio)phenyl]-6-oxo-3-pyridinecarboxamide] | < 100
O=C(NC1CN2CCC1CC2)c1ccc(=O)n(-c2cccc(Cl)c2Cl)c1 (centres unmarked) [Example 46, N-(1-azabicyclo[2.2.2]octan-3-yl)-1-(2,3-dichlorophenyl)-6-oxo-3-pyridinecarboxamide] | 100 to 500
CCSc1ccccc1-n1cc(C(=O)NC2CN3CCC2CC3)ccc1=O (centres unmarked) [Example 80, N-(1-azabicyclo[2.2.2]octan-3-yl)-1-[2-(ethylthio)phenyl]-6-oxo-3-pyridinecarboxamide] | < 100
O=C(NC1CN2CCC1CC2)c1ccc(=O)n(-c2ccccc2OCc2ccccc2)c1 (centres unmarked) [Example 63, N-(1-azabicyclo[2.2.2]octan-3-yl)-6-oxo-1-(2-phenylmethoxyphenyl)-3-pyridinecarboxamide] | > 1000
O=C(NC1CN2CCC1CC2)c1ccc(=O)n(-c2ccc(C3CCCCC3)cc2)c1 (centres unmarked) [Example 18, N-(1-azabicyclo[2.2.2]octan-3-yl)-1-(4-cyclohexylphenyl)-6-oxo-3-pyridinecarboxamide] | 500 to 1000
CCSc1cc(OC)ccc1-n1cc(C(=O)NC2CN3CCC2CC3)ccc1=O (centres unmarked) [Example 85, N-(1-azabicyclo[2.2.2]octan-3-yl)-1-[2-(ethylthio)-4-methoxyphenyl]-6-oxo-3-pyridinecarboxamide] | < 100
CSc1cc(C2CCCCC2)ccc1-n1cc(C(=O)NC2CN3CCC2CC3)ccc1=O (centres unmarked) [Example 99, N-(1-azabicyclo[2.2.2]octan-3-yl)-1-[4-cyclohexyl-2-(methylthio)phenyl]-6-oxo-3-pyridinecarboxamide] | 100 to 500
O=C(NC1CN2CCC1CC2)c1ccc(=O)n(-c2ccc(-c3ccccc3)cc2Cl)c1 (centres unmarked) [Example 70, N-(1-azabicyclo[2.2.2]octan-3-yl)-1-(2-chloro-4-phenylphenyl)-6-oxo-3-pyridinecarboxamide] | 100 to 500
CC(C)Sc1ccccc1-n1cc(C(=O)NC2CN3CCC2CC3)ccc1=O (centres unmarked) [Example 81, N-(1-azabicyclo[2.2.2]octan-3-yl)-6-oxo-1-[2-(propan-2-ylthio)phenyl]-3-pyridinecarboxamide] | 100 to 500
Cc1ccc(-n2cc(C(=O)NC3CN4CCC3CC4)ccc2=O)c(Cl)c1 (centres unmarked) [Example 29, N-(1-azabicyclo[2.2.2]octan-3-yl)-1-(2-chloro-4-methylphenyl)-6-oxo-3-pyridinecarboxamide] | > 1000
CSc1ccc(-n2cc(C(=O)NC3CN4CCC3CC4)ccc2=O)cc1 (centres unmarked) [Example 76, N-(1-azabicyclo[2.2.2]octan-3-yl)-1-[4-(methylthio)phenyl]-6-oxo-3-pyridinecarboxamide] | 100 to 500
O=C(NC1CN2CCC1CC2)c1ccc(=O)n(-c2ccccc2-c2cccs2)c1 (centres unmarked) [Example 110, N-(1-azabicyclo[2.2.2]octan-3-yl)-6-oxo-1-(2-thiophene-2-ylphenyl)-3-pyridinecarboxamide] | 100 to 500
CC(C)Sc1cc(Cl)ccc1-n1cc(C(=O)NC2CN3CCC2CC3)ccc1=O (centres unmarked) [Example 93, N-(1-azabicyclo[2.2.2]octan-3-yl)-1-[4-chloro-2-(propan-2-ylthio)phenyl]-6-oxo-3-pyridinecarboxamide] | 100 to 500
CCCc1ccc(-n2cc(C(=O)NC3CN4CCC3CC4)ccc2=O)c(SC)c1 (centres unmarked) [Example 94, N-(1-azabicyclo[2.2.2]octan-3-yl)-1-[2-(methylthio)-4-propylphenyl]-6-oxo-3-pyridinecarboxamide] | < 100
Cc1ccc(Oc2ccc(-n3cc(C(=O)NC4CN5CCC4CC5)ccc3=O)cc2)cc1 (centres unmarked) [Example 72, N-(1-azabicyclo[2.2.2]octan-3-yl)-1-[4-(4-methylphenoxy)phenyl]-6-oxo-3-pyridinecarboxamide] | 100 to 500
Cc1ccccc1-n1cc(C(=O)NC2CN3CCC2CC3)ccc1=O (centres unmarked) [Example 11, N-(1-azabicyclo[2.2.2]octan-3-yl)-1-(2-methylphenyl)-6-oxo-3-pyridinecarboxamide] | > 1000
CCc1ccc(-n2cc(C(=O)NC3CN4CCC3CC4)ccc2=O)cc1 (centres unmarked) [Example 14, N-(1-azabicyclo[2.2.2]octan-3-yl)-1-(4-ethylphenyl)-6-oxo-3-pyridinecarboxamide] | 500 to 1000
CN(C)c1ccc(-n2cc(C(=O)NC3CN4CCC3CC4)ccc2=O)cc1 (centres unmarked) [Example 113, N-(1-azabicyclo[2.2.2]octan-3-yl)-1-[4-dimethylaminophenyl]-6-oxo-3-pyridinecarboxamide] | 500 to 1000
Cc1ccc(-c2ccccc2-n2cc(C(=O)NC3CN4CCC3CC4)ccc2=O)s1 (centres unmarked) [Example 111, N-(1-azabicyclo[2.2.2]octan-3-yl)-1-[2-(5-methyl-2-thiophenyl)phenyl]-6-oxo-3-pyridinecarboxamide] | 100 to 500
O=C(NC1CN2CCC1CC2)c1ccc(=O)n(-c2ccccc2Oc2ccccc2)c1 (centres unmarked) [Example 74, N-(1-azabicyclo[2.2.2]octan-3-yl)-6-oxo-1-(2-phenoxyphenyl)-3-pyridinecarboxamide] | 100 to 500
Cc1ccc(-n2cc(C(=O)NC3CN4CCC3CC4)ccc2=O)cc1 (centres unmarked) [Example 12, N-(1-azabicyclo[2.2.2]octan-3-yl)-1-(4-methylphenyl)-6-oxo-3-pyridinecarboxamide] | 500 to 1000
O=C(NC1CN2CCC1CC2)c1ccc(=O)n(-c2ccc(Cl)cc2F)c1 (centres unmarked) [Example 38, N-(1-azabicyclo[2.2.2]octan-3-yl)-1-(4-chloro-2-fluorophenyl)-6-oxo-3-pyridinecarboxamide] | 100 to 500
CS(=O)(=O)c1ccc(-n2cc(C(=O)NC3CN4CCC3CC4)ccc2=O)cc1 (centres unmarked) [Example 101, N-(1-azabicyclo[2.2.2]octan-3-yl)-1-(4-methylsulfonylphenyl)-6-oxo-3-pyridinecarboxamide] | 100 to 500
